From ChEMBL document CHEMBL1136262, “4-Alkoxy-2,6-diaminopyrimidine derivatives: inhibitors of cyclin dependent kinases 1 and 2” (Bioorg Med Chem Lett, 2003)

What was measured:
[1] = target: Cyclin-dependent kinase 2/cyclin A (Homo sapiens, UniProt P24941); assay: Inhibition of human Cyclin-dependent kinase 2 cyclin A3 at 12.5 uM ATP; type: protein-complex assay
[2] = target: T1, Cyclin-dependent kinase 2/cyclin A (Homo sapiens) (UniProt P24941+P20248+P78396); assay: Inhibition of human Cyclin-dependent kinase 2 cyclin A3 at 100 uM; type: protein-complex assay
[3] = target: T2, Cyclin-dependent kinase 1/cyclin B1 (Homo sapiens, UniProt P06493+P14635); assay: Inhibition of Cyclin dependent kinase 1-cyclin B1 from starfish oocytes at 100 uM; settings: Asteroidea, Oocyte
T2 sequence (P06493 whole entry, looked up): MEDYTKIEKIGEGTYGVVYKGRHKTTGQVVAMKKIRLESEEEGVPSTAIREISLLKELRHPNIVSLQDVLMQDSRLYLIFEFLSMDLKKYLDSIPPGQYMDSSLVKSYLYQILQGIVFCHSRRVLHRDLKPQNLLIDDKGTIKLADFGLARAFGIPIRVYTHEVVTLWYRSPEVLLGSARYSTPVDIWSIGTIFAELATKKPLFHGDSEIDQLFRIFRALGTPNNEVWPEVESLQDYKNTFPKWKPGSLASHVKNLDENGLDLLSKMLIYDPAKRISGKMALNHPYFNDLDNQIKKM
T2 sequence (P14635 whole entry, looked up): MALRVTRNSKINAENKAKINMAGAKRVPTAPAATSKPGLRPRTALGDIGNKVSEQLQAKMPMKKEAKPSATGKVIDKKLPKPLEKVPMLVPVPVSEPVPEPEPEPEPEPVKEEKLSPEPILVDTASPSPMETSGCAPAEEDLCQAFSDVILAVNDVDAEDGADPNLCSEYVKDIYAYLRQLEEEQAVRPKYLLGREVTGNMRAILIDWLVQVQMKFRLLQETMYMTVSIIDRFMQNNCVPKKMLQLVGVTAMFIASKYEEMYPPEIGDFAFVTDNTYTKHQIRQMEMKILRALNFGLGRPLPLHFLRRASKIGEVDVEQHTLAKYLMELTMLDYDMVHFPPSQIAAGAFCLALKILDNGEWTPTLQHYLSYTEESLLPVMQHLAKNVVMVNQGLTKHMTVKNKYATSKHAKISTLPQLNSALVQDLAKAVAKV

[4] = target: T2, Cyclin-dependent kinase 1/cyclin B1; assay: Inhibition of Cyclin dependent kinase 1-cyclin B1 from starfish oocytes at 10 uM; settings: Asteroidea, Oocyte
[5] = target: T1, Cyclin-dependent kinase 2/cyclin A (Homo sapiens); assay: Inhibition of human Cyclin-dependent kinase 2 cyclin A3 at 10 uM; type: protein-complex assay

SMILES | IC50 [1] [µM] | inhibition [2] [%] | inhibition [3] [%] | inhibition [4] [%] | inhibition [5] [%]
Nc1nc(N)c(N=O)c(OCC2CC=CCC2)n1 (configuration not stated) | 5 |  |  |  | 
Nc1nc(N)c(N=O)c(OCc2ccccc2)n1 | 27 |  |  |  | 
Nc1nc(N)c(N=O)c(OC[C@@H]2NCCC2=O)n1 | 65 |  |  |  | 
CCCCCCCOc1nc(N)nc(N)c1N=O |  |  |  | 17 | 22
Nc1nc(N)c(C(=O)c2ccccc2)c(OCC2CCCCC2)n1 |  |  |  | 21 | 6
Nc1nc(N)c(C(O)c2ccccc2)c(OCC2CCCCC2)n1 (configuration not stated) |  | 12 | 4 |  | 
Nc1nc(NC(=O)OCc2ccccc2)c(N=O)c(OCC2CCCCC2)n1 |  |  |  | 14 | 11
Nc1nc(Nc2ccccc2)c(N=O)c(OCC2CCCCC2)n1 |  | 47 | 23 |  | 
CCCCCOc1nc(N)nc(N)c1N=O |  |  |  | 35 | 36
Nc1cc(OCC2CC=CCC2)nc(N)n1 (configuration not stated) |  |  |  | 16 | 8
COc1ccc(Nc2nc(N)nc(OCC3CCCCC3)c2N=O)cc1 |  | 8 | 7 |  | 

The remaining lines, values ahead:

IC50 [1] [µM] | inhibition [2] [%] | inhibition [3] [%] | inhibition [4] [%] | inhibition [5] [%] | SMILES
 | 52 | 40 |  |  | Nc1nc(N)c(N)c(OCC2CCCCC2)n1
 |  |  | 13 | 13 | CO/N=C/c1c(N)nc(N)nc1OCC1CCCCC1
 | 28 | 36 |  |  | CC(=O)Nc1nc(N)nc(OCC2CCCCC2)c1N=O
 |  |  | 5 | 3 | Nc1nc(N)c(/C=N/OCc2ccccc2)c(OCC2CCCCC2)n1
 | 6 | 8 |  |  | COC(=O)Nc1nc(N)nc(OCC2CCCCC2)c1N=O
 | 37 | 25 |  |  | Nc1nc(N)c(/C=N/O)c(OCC2CCCCC2)n1
 |  |  | 4 | 7 | Nc1cc(OCC2CCCCC2)nc(N)n1
 | 44 | 61 |  |  | NC(=O)N/N=C/c1c(N)nc(N)nc1OCC1CCCCC1
 |  |  | 35 | 43 | Nc1nc(N)c(C=O)c(OCC2CCCCC2)n1
